{
  "source": "ChEMBL document CHEMBL4765295",
  "about": "“Synthesis, pharmacological profile and 2D-QSAR studies of curcumin-amino acid conjugates as potential drug candidates” (Eur J Med Chem, 2020)",
  "note": "Where “and” joins values, the source holds several entries; their conditions need not be identical. Equal values may be shown once.",
  "data": [
    {"test_system": "Mus musculus", "assay": "Analgesic activity in albino mouse assessed as protection at 10 mg/kg, ip measured after 60 mins by hot plate test (reference value: 0 %)", "format": "functional", "settings": "1 h", "units": {"Activity": "%"}, "values": [
      {"smiles": "COc1cc(/C=C/C(=O)/C=C(O)/C=C/c2ccc(OC(=O)[C@H](CCSC)NC(=O)OCC3c4ccccc4-c4ccccc43)c(OC)c2)ccc1OC(=O)[C@H](CCSC)NC(=O)OCC1c2ccccc2-c2ccccc21", "Activity": 46.8}
    ]},
    {"test_system": "Staphylococcus aureus", "assay": "Antibacterial activity against Staphylococcus aureus ATCC 25923 incubated for 18 hrs by agar dilution method", "format": "functional", "settings": "not given", "values": [
      {"smiles": "COc1cc(/C=C/C(=O)/C=C(O)/C=C/c2ccc(OC(=O)[C@H](CCSC)NC(=O)OCC3c4ccccc4-c4ccccc43)c(OC)c2)ccc1OC(=O)[C@H](CCSC)NC(=O)OCC1c2ccccc2-c2ccccc21", "MIC": "0.25 µg/mL and 0.233 µM"}
    ]},
    {"test_system": "Rattus norvegicus", "assay": "Anti-inflammatory activity in Wistar rat assessed as inhibition of carrageenan-induced paw edema at 10 mg/kg, ip pretreated for 1 hr followed by carrageenan challenge and measured after 1 hr relative to control (reference value: 0.00 +/-0.02 %)", "format": "functional", "settings": "time 2 hrs", "units": {"inhibition in vivo at 10 mg/kg": "%"}, "values": [
      {"smiles": "COc1cc(/C=C/C(=O)/C=C(O)/C=C/c2ccc(OC(=O)[C@H](CCSC)NC(=O)OCC3c4ccccc4-c4ccccc43)c(OC)c2)ccc1OC(=O)[C@H](CCSC)NC(=O)OCC1c2ccccc2-c2ccccc21", "inhibition in vivo at 10 mg/kg": 46}
    ]},
    {"test_system": "Mus musculus", "assay": "Analgesic activity in albino mouse assessed reduction in acetic acid-induced abdominal writhing by measuring writing reflex at 10 mg/kg, ip pretreated for 1 hr followed by acetic acid challenge and measured starting 5 mins post acetic acid challenge for 10 mins (reference value: 42.4 +/- 1.02)", "format": "functional", "settings": "time 75 min, 1.25 h", "values": [
      {"smiles": "COc1cc(/C=C/C(=O)/C=C(O)/C=C/c2ccc(OC(=O)[C@H](CCSC)NC(=O)OCC3c4ccccc4-c4ccccc43)c(OC)c2)ccc1OC(=O)[C@H](CCSC)NC(=O)OCC1c2ccccc2-c2ccccc21", "Activity": 16.2}
    ]},
    {"test_system": "Mus musculus", "assay": "Analgesic activity in albino mouse assessed protection against acetic acid-induced abdominal writhing at 10 mg/kg, ip pretreated for 1 hr followed by acetic acid challenge and measured starting 5 mins post acetic acid challenge for 10 mins relative to indomethacin", "format": "functional", "settings": "time 75 min, 1.25 h", "units": {"Activity": "%"}, "values": [
      {"smiles": "COc1cc(/C=C/C(=O)/C=C(O)/C=C/c2ccc(OC(=O)[C@H](CCSC)NC(=O)OCC3c4ccccc4-c4ccccc43)c(OC)c2)ccc1OC(=O)[C@H](CCSC)NC(=O)OCC1c2ccccc2-c2ccccc21", "Activity": 100.3}
    ]},
    {"test_system": "not listed separately", "assay": "Ulcerogenic activity in fasted albino mouse assessed as average severity of ulcers in gastric mucosa at 10 mg/kg, po for 3 days (reference value: 0)", "format": "toxicity, organism-based", "settings": "in vivo, 72 h, time 3 day", "values": [
      {"smiles": "COc1cc(/C=C/C(=O)/C=C(O)/C=C/c2ccc(OC(=O)[C@H](CCSC)NC(=O)OCC3c4ccccc4-c4ccccc43)c(OC)c2)ccc1OC(=O)[C@H](CCSC)NC(=O)OCC1c2ccccc2-c2ccccc21", "Activity": 0}
    ]},
    {"test_system": "Rattus norvegicus", "assay": "Anti-inflammatory activity in Wistar rat assessed as inhibition of carrageenan-induced paw edema at 10 mg/kg, ip pretreated for 1 hr followed by carrageenan challenge and measured after 4 hr relative to control (reference value: 0.00 +/-0.4 %)", "format": "functional", "settings": "time 5 hrs", "units": {"inhibition in vivo at 10 mg/kg": "%"}, "values": [
      {"smiles": "COc1cc(/C=C/C(=O)/C=C(O)/C=C/c2ccc(OC(=O)[C@H](CCSC)NC(=O)OCC3c4ccccc4-c4ccccc43)c(OC)c2)ccc1OC(=O)[C@H](CCSC)NC(=O)OCC1c2ccccc2-c2ccccc21", "inhibition in vivo at 10 mg/kg": 98}
    ]},
    {"test_system": "Rattus norvegicus", "assay": "Antiinflammatory activity in Wistar rat model of carrageenan-induced paw edema assessed as reduction in thickness of paw edema at 10 mg/kg, ip pretreated for 1 hr followed by carrageenan challenge and measured after 2 hrs (reference value: 2.06 +/-0.09 mm)", "format": "functional", "settings": "time 3 hrs", "units": {"Activity": "mm"}, "values": [
      {"smiles": "COc1cc(/C=C/C(=O)/C=C(O)/C=C/c2ccc(OC(=O)[C@H](CCSC)NC(=O)OCC3c4ccccc4-c4ccccc43)c(OC)c2)ccc1OC(=O)[C@H](CCSC)NC(=O)OCC1c2ccccc2-c2ccccc21", "Activity": 0.56}
    ]},
    {"test_system": "Mus musculus", "assay": "Analgesic activity in albino mouse assessed as protection at 10 mg/kg, ip measured after 30 mins by hot plate test (reference value: 0 %)", "format": "functional", "settings": "0.5 h", "units": {"Activity": "%"}, "values": [
      {"smiles": "COc1cc(/C=C/C(=O)/C=C(O)/C=C/c2ccc(OC(=O)[C@H](CCSC)NC(=O)OCC3c4ccccc4-c4ccccc43)c(OC)c2)ccc1OC(=O)[C@H](CCSC)NC(=O)OCC1c2ccccc2-c2ccccc21", "Activity": 35.9}
    ]},
    {"test_system": "Rattus norvegicus", "assay": "Antiinflammatory activity in Wistar rat model of carrageenan-induced paw edema assessed as reduction in thickness of paw edema at 10 mg/kg, ip pretreated for 1 hr followed by carrageenan challenge and measured after 4 hrs (reference value: 1.40 +/-0.10 mm)", "format": "functional", "settings": "time 5 hrs", "units": {"Activity": "mm"}, "values": [
      {"smiles": "COc1cc(/C=C/C(=O)/C=C(O)/C=C/c2ccc(OC(=O)[C@H](CCSC)NC(=O)OCC3c4ccccc4-c4ccccc43)c(OC)c2)ccc1OC(=O)[C@H](CCSC)NC(=O)OCC1c2ccccc2-c2ccccc21", "Activity": 0.03}
    ]},
    {"test_system": "Rattus norvegicus", "assay": "Anti-inflammatory activity in Wistar rat assessed as inhibition of carrageenan-induced paw edema at 10 mg/kg, ip pretreated for 1 hr followed by carrageenan challenge and measured after 3 hr relative to control (reference value: 0.00 +/-0.1 %)", "format": "functional", "settings": "time 4 hrs", "units": {"inhibition in vivo at 10 mg/kg": "%"}, "values": [
      {"smiles": "COc1cc(/C=C/C(=O)/C=C(O)/C=C/c2ccc(OC(=O)[C@H](CCSC)NC(=O)OCC3c4ccccc4-c4ccccc43)c(OC)c2)ccc1OC(=O)[C@H](CCSC)NC(=O)OCC1c2ccccc2-c2ccccc21", "inhibition in vivo at 10 mg/kg": 75}
    ]},
    {"test_system": "Mus musculus", "assay": "Analgesic activity in albino mouse assessed as forepaw licking/jumping latency time at 10 mg/kg, ip measured after 60 mins by hot plate test (reference value: 3.42 +/- 0.03 sec)", "format": "functional", "settings": "1 h", "units": {"Time": "s"}, "values": [
      {"smiles": "COc1cc(/C=C/C(=O)/C=C(O)/C=C/c2ccc(OC(=O)[C@H](CCSC)NC(=O)OCC3c4ccccc4-c4ccccc43)c(OC)c2)ccc1OC(=O)[C@H](CCSC)NC(=O)OCC1c2ccccc2-c2ccccc21", "Time": 5.02}
    ]},
    {"test_system": "Splenocyte", "assay": "Immunomodulatory activity in Swiss albino mouse splenocytes assessed as cell viability at 10 uM by measuring inhibition of stimulation index incubated for 72 hrs in presence of mitogenic stimulus phytohaemagglutinin by MTT assay relative to indomethacin", "format": "functional", "settings": "read-out: Activity", "units": {"viability at 10 µM": "%"}, "values": [
      {"smiles": "COc1cc(/C=C/C(=O)/C=C(O)/C=C/c2ccc(OC(=O)[C@H](CCSC)NC(=O)OCC3c4ccccc4-c4ccccc43)c(OC)c2)ccc1OC(=O)[C@H](CCSC)NC(=O)OCC1c2ccccc2-c2ccccc21", "viability at 10 µM": 113}
    ]},
    {"test_system": "Mus musculus", "assay": "Analgesic activity in albino mouse assessed as protection at 10 mg/kg, ip measured after 90 mins by hot plate test (reference value: 0 %)", "format": "functional", "settings": "1.5 h", "units": {"Activity": "%"}, "values": [
      {"smiles": "COc1cc(/C=C/C(=O)/C=C(O)/C=C/c2ccc(OC(=O)[C@H](CCSC)NC(=O)OCC3c4ccccc4-c4ccccc43)c(OC)c2)ccc1OC(=O)[C@H](CCSC)NC(=O)OCC1c2ccccc2-c2ccccc21", "Activity": 24.3}
    ]},
    {"test_system": "Rattus norvegicus", "assay": "Antiinflammatory activity in Wistar rat model of carrageenan-induced paw edema assessed as reduction in thickness of paw edema at 10 mg/kg, ip pretreated for 1 hr followed by carrageenan challenge and measured after 24 hrs (reference value: 0.83 +/-0.08 mm)", "format": "functional", "settings": "time 25 hrs", "units": {"Activity": "mm"}, "values": [
      {"smiles": "COc1cc(/C=C/C(=O)/C=C(O)/C=C/c2ccc(OC(=O)[C@H](CCSC)NC(=O)OCC3c4ccccc4-c4ccccc43)c(OC)c2)ccc1OC(=O)[C@H](CCSC)NC(=O)OCC1c2ccccc2-c2ccccc21", "Activity": 0.64}
    ]},
    {"test_system": "Mus musculus", "assay": "Analgesic activity in albino mouse assessed as protection at 10 mg/kg, ip measured after 120 mins by hot plate test (reference value: 0 %)", "format": "functional", "settings": "2 h", "units": {"Activity": "%"}, "values": [
      {"smiles": "COc1cc(/C=C/C(=O)/C=C(O)/C=C/c2ccc(OC(=O)[C@H](CCSC)NC(=O)OCC3c4ccccc4-c4ccccc43)c(OC)c2)ccc1OC(=O)[C@H](CCSC)NC(=O)OCC1c2ccccc2-c2ccccc21", "Activity": 13.7}
    ]},
    {"test_system": "Streptococcus pyogenes", "assay": "Antibacterial activity against Streptococcus pyogenes ATCC 19615 incubated for 18 hrs by agar dilution method", "format": "functional", "settings": "not given", "values": [
      {"smiles": "COc1cc(/C=C/C(=O)/C=C(O)/C=C/c2ccc(OC(=O)[C@H](CCSC)NC(=O)OCC3c4ccccc4-c4ccccc43)c(OC)c2)ccc1OC(=O)[C@H](CCSC)NC(=O)OCC1c2ccccc2-c2ccccc21", "MIC": "0.125 µg/mL and 0.116 µM"}
    ]},
    {"test_system": "not listed separately", "assay": "Ulcerogenic activity in fasted albino mouse assessed as ulcer index in gastric mucosa at 10 mg/kg, po for 3 days (reference value: 0)", "format": "toxicity, organism-based", "settings": "in vivo, 72 h, time 3 day", "values": [
      {"smiles": "COc1cc(/C=C/C(=O)/C=C(O)/C=C/c2ccc(OC(=O)[C@H](CCSC)NC(=O)OCC3c4ccccc4-c4ccccc43)c(OC)c2)ccc1OC(=O)[C@H](CCSC)NC(=O)OCC1c2ccccc2-c2ccccc21", "UI": 0}
    ]}
  ]
}
